Reference: BindingDB's records for doi:10.1007/pl00005131 (UniversitÄT WÜRzburg, 1998)

Key:
[1] = target: Adenosine receptor A2a (Homo sapiens, UniProt P29274)
[2] = target: T1, Adenosine receptor A3 (Homo sapiens, UniProt P0DMS8)
T1 sequence (P0DMS8 whole entry): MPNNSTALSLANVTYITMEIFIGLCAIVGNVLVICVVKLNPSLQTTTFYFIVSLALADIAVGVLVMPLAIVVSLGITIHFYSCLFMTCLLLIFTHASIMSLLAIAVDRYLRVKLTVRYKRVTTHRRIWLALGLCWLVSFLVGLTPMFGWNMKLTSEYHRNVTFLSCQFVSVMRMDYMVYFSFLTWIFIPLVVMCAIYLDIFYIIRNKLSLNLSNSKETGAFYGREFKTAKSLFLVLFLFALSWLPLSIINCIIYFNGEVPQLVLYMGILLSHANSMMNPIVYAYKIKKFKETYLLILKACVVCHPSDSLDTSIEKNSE

Sequence of Adenosine receptor A2a (P29274 whole entry): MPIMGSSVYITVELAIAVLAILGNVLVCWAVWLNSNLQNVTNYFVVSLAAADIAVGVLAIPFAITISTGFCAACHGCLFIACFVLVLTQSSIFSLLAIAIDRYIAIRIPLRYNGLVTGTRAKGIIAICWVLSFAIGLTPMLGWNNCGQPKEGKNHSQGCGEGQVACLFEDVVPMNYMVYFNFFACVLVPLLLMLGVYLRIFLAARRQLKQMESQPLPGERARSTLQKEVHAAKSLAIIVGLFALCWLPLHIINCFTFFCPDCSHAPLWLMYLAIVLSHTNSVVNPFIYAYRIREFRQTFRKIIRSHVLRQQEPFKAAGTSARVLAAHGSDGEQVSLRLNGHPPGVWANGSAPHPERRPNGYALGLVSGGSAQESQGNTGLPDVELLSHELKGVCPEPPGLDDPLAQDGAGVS

Ki [1] | Ki [2] | Compound
794 nM | 43 nM | OC[C@H]1O[C@@H](n2cnc3c(NC4CCCC4)ncnc32)[C@H](O)[C@@H]1O
471 nM |  | CNC(=O)[C@H]1O[C@@H](n2cnc3c(NCc4ccc(N)c(I)c4)ncnc32)[C@H](O)[C@@H]1O
 | 21.5 nM | CNC(=O)[C@H]1O[C@@H](n2cnc3c(NCc4ccc(N)cc4)ncnc32)[C@H](O)[C@@H]1O [AB-MECA]

Compound | Ki [1] | Ki [2]
Nc1nc2ccc(Cl)cc2c2nc(-c3ccco3)nn12 |  | 50.8 nM
